Test results taken from US20170107577A1, “Determining Cancer Aggressiveness, Prognosis and Responsiveness to Treatment” (THE COUNCIL OF THE QUEENSLAND INSTITUTE OF MEDICAL RESEARCH, priority 2014, published 2017).

How the values were obtained:
Type in all cases: cell-based
cancer cell lines [1] = test: Garnett et al. drug screen re-analysed by TN/Agro/iBCR score; settings: Garnett et al. study; for sensitivity (−log10[IC50]) of high TN score vs low TN score cell lines: dichotomy across median TN score; for sensitivity of high iBCR score vs low iBCR score cell lines: dichotomy across median iBCR score
Description: FIG. 24: Drug sensitivity of cancer cell lines according to the TN score. The large published study by Garnett et al. was investigated where the TN score was calculated for each cell line in the study as described in Methods. The cell lines were classified as high or low TN score according to the median TN score to compare the sensitivity of low TN score cell lines (white boxes) and high TN score cell lines (red boxes). Graphs were prepared using GraphPad® Prism showing sensitivity as −log 10[IC50] in boxes (with median marked by a line) and whiskers (marking the 1st and 3rd quartiles and outliers as dots according to Tukey method for plotting the whiskers and outliers). Unpaired two-tailed t test was used for statistical analysis.
FIG. 30: Drug sensitivity of cancer cell lines according to the iBCR score. The large published study by Garnett et al. was investigated where the iBCR score was calculated for each cell line from the Agro and TN scores. The cell lines were classified as high or low iBCR score according to the median iBCR score to compare the sensitivity of low iBCR score cell lines (white boxes) and […] (red boxes). Results according to low and high Agro score were also included.
(§1) Two large studies which treated large panels of cancer cell lines with large panels of anticancer drugs were investigated to determine whether cell lines with high Agro, TN or iBCR scores show different sensitivity to particular anticancer drugs in comparison to cancer cell lines with low Agro, TN or iBCR scores. Briefly, the datasets of gene expression profiling from Genentech (mRNA Cancer Cell Line Profiles GSE10843), Pfizer (Pfizer Molecular Profile Data for Cell Line GSE34211) and Broad Institute/Novartis (Cancer Cell Line Encyclopedia [CCLE] GSE3613) were obtained from GEO and imported into ArrayTools as described earlier. The Agro, TN and iBCR scores for all the cell lines profiled were calculated and cell lines were assigned as high or low for each of the scores based on dichotomy across the median in each dataset. For cell lines which were profiled in more than one dataset, the average scores were used. […] Statistical significance was determined from unpaired two-tailed t-test using GraphPad® Prism.
(§2) In the second approach, published studies which surveyed panels of molecular drugs against, cancer cell lines were analyzed. The Cancer Cell Line Encyclopedia (CCLE) study investigated the pharmacological profiles for 24 anticancer drugs across 479 cancer cell lines which were also profiled with gene expression arrays. We calculated the TN score for each cell line in this study and compared the sensitivity of these cell lines to the anticancer drugs according to the TN score. […] In a similar method, we also analyzed a second large study. Garnett et al., which tested 130 drugs against more than 600 cancer cell lines.

breast cancer cell lines = test: Screen of 24 anti-cancer drugs on 10 breast cancer cell lines (MTS/MTA, six days) re-analysed by iBCR score; settings: 5 high vs 5 low iBCR score cell lines
Description: FIG. 47: The sensitivity of breast cancer cell lines treated with 24 drugs according to the iBCR score. Breast cancer cell lines (10 cell lines) were cultured in the absence or presence of escalating doses of 24 small molecular anti-cancer drugs. This published study was re-analyzed to compare the sensitivity (calculated as the −log IC50) between high iBCR score cell lines (5 cell lines: BT-549, MDA-MB-231, MDA-MB-436, MDA-MB-468 and BT-20) to low iBCR score cell lines (5 cell lines: Hs.578T, BT-474, MCF-7, T-47D, and ZR-75-1). The iBCR scores were calculated from the Agro and TN scores using the published gene expression dataset for 51 breast cancer cell lines (Neve et al., Cancer Cell, 2006). […] Statistical comparison was performed in GraphPad® Prism using two tailed unpaired t-test.
Breast cancer cell lines (10 cell lines); BT-549, MDA-MB-231, MDA-MB-436, MDA-MB-468, BT-20, Hs.578T, BT-474, MCF-7, T-47D, and ZR-75-1, were cultured in the absence or presence of escalating doses of 24 anti-cancer drugs. The survival of cells was determined six days in comparison to untreated cells using the MTS/MTA assay. The response of the cell lines to the drugs was analyzed in GraphPad® Prism using a dose response curve to calculate the log10 of IC50 (IC50 is the dose required to kill 50% of the cells). Sensitivity was presented as the −log10[IC50]. This drug screen which we published previously (Al-Ejeh et al., Oncotarget, 2014) was re-analyzed according to the iBCR score. The gene expression datasets of 51 breast cancer cell lines by Neve et al. (Cancer Cell, 2006), was analyzed to calculate the Agro and TN scores for each cell line to calculate the iBCR score. Each cell line was assigned as low of high iBCR score by dichotomy across the median of all the cell lines in the Neve et al. dataset. Based on the low or high iBCR score classification, the sensitivity of the 10 cell lines used in our screen was compared between high iBCR score cell lines (5 cell lines) to low iBCR score cell lines (5 cell lines). […] PLC[…] (U73122), INK (SP600125), PAK1 MEK (AS703026 and AZD6244), ERK5 (XMD 8-92 and BIX02188). HSP90 (17-AAa PF0429113 and AUY922), IGF1R (GSK1904529A) and EGFR (Afatinib). The results from our screen are in agreement with the higher sensitivity of high iBCR score cancer cell lines to HSP90, IGF1R and MEK inhibitors we identified from the two previously published large cell line studies.

cancer cell lines [2] = test: Cancer Cell Line Encyclopedia (CCLE) drug sensitivity re-analysed by TN/Agro/iBCR score; settings: CCLE study; for sensitivity (IC50) of high TN score vs low TN score cell lines: dichotomy across median TN score; for sensitivity (IC50) of high iBCR score vs low iBCR score cell lines: dichotomy across median iBCR score
Description: (§3) FIG. 35: Sensitivity of cancer cell lines to anticancer drugs according to the TN score in the Cancer Cell Line Encyclopedia (CCLE) study. The gene expression data of the cancer cell lines in the study were analyzed to calculate the TN score for each cell line and were assigned to low or high TN score by dichotomy across the median. The IC50 for each of the 24 drugs used in the CCLE study was compared between high and low TN score cell lines and the data shown are those with statistical differences based on unpaired two-tailed t-test performed using GraphPad® Prism.
as §3, with “FIG. 42: Sensitivity of” for “FIG. 35: Sensitivity of”, “to the iBCR score in” for “to the TN score in”, “or high iBCR score by” for “or high TN score by”, “and low iBCR score cell” for “and low TN score cell”, “GraphPad® Prism. As this analysis was also done for the TN score (FIG. 35), results from analysis of the Agro score are also shown in the top row.” for “GraphPad® Prism.”
as §1, §2

CN(C)C(=N)N=C(N)N [metformin]
sensitivity (−log10[IC50]) of high TN score vs low TN score cell lines (cancer cell lines [1]): less sensitive
sensitivity of high iBCR score vs low iBCR score cell lines (cancer cell lines [1]): less sensitive

Cc1cc(N2CCOCC2)cc2[nH]c(-c3c(NC[C@@H](O)c4cccc(Cl)c4)cc[nH]c3=O)nc12 [BMS-536924]
sensitivity (−log10[IC50]) of high TN score vs low TN score cell lines (cancer cell lines [1]): more sensitive
sensitivity of high iBCR score vs low iBCR score cell lines (cancer cell lines [1]): more sensitive

CCNC(=O)c1noc(-c2cc(C(C)C)c(O)cc2O)c1-c1ccc(CN2CCOCC2)cc1 [AUY922]
sensitivity (−log10[IC50]) of high iBCR score vs low iBCR score breast cancer cell lines (breast cancer cell lines): significantly more sensitive

C[C@]1(c2nc3c(C(N)=O)cccc3[nH]2)CCCN1 [ABT-888]
sensitivity (−log10[IC50]) of high TN score vs low TN score cell lines (cancer cell lines [1]): less sensitive
sensitivity of high iBCR score vs low iBCR score cell lines (cancer cell lines [1]): less sensitive

CC1=C(/C=C/C(C)=C/C=C/C(C)=C/C(=O)O)C(C)(C)CCC1 [ATRA, all-trans retinoic acid]
sensitivity (−log10[IC50]) of high TN score vs low TN score cell lines (cancer cell lines [1]): less sensitive
sensitivity of high iBCR score vs low iBCR score cell lines (cancer cell lines [1]): less sensitive

CN(NC(=O)CC(=O)NN(C)C(=S)c1ccccc1)C(=S)c1ccccc1 [Elesclomol]
sensitivity (−log10[IC50]) of high TN score vs low TN score cell lines (cancer cell lines [1]): sensitive

C[C@]1(O)C[C@@H](c2nc(-c3ccc4ccc(-c5ccccc5)nc4c3)c3c(N)nccn32)C1 [OSI-906]
sensitivity (−log10[IC50]) of high TN score vs low TN score cell lines (cancer cell lines [1]): less sensitive

COc1cc(N2CCC(N3CCN(C)CC3)CC2)ccc1Nc1ncc(Cl)c(Nc2ccccc2S(=O)(=O)C(C)C)n1 [TAE684]
sensitivity (IC50) of high TN score vs low TN score cell lines (cancer cell lines [2]): less sensitive
sensitivity (IC50) of high iBCR score vs low iBCR score cell lines (cancer cell lines [2]): less sensitive

COc1ccc2c(c1)CC[C@@H]1[C@@H]2CC[C@]2(C)[C@@H](NCCCCCCN3C(=O)C=CC3=O)CC[C@@H]12 [U73122]
sensitivity (−log10[IC50]) of high iBCR score vs low iBCR score breast cancer cell lines (breast cancer cell lines): significantly more sensitive

C#Cc1cccc(Nc2ncnc3cc(OCCOC)c(OCCOC)cc23)c1 [Erlotinib]
sensitivity (IC50) of high TN score vs low TN score cell lines (cancer cell lines [2]): more sensitive

CN(Cc1cnc2nc(N)nc(N)c2n1)c1ccc(C(=O)N[C@@H](CCC(=O)O)C(=O)O)cc1 [methotrexate]
sensitivity (−log10[IC50]) of high TN score vs low TN score cell lines (cancer cell lines [1]): less sensitive
sensitivity of high iBCR score vs low iBCR score cell lines (cancer cell lines [1]): less sensitive

COc1cc(F)c(F)c(Nc2ccc(I)cc2F)c1NS(=O)(=O)C1(C[C@H](O)CO)CC1 [RDEA-119]
sensitivity (−log10[IC50]) of high TN score vs low TN score cell lines (cancer cell lines [1]): more sensitive

COc1ccc(-c2cc3nccn3c(Nc3ncccc3C(N)=O)n2)cc1OC [BAY613606]
sensitivity of high iBCR score vs low iBCR score cell lines (cancer cell lines [1]): less sensitive

CCOc1cc(N2CCC(O)CC2)ccc1Nc1ncc2c(n1)N(C)c1ccccc1C(=O)N2C [XMD 8-92]
sensitivity (−log10[IC50]) of high iBCR score vs low iBCR score breast cancer cell lines (breast cancer cell lines): significantly more sensitive

CN1CCN(c2ccc3nc(-c4c(N)c5c(F)cccc5[nH]c4=O)[nH]c3c2)CC1 [TKI258]
sensitivity (IC50) of high iBCR score vs low iBCR score cell lines (cancer cell lines [2]): less sensitive

CC(C)(C)Cn1c(N)nc2ccc(-c3[nH]c(C(C)(C)C)nc3-c3ccc(F)cc3)nc21 [LY2228820]
sensitivity (−log10[IC50]) of high iBCR score vs low iBCR score breast cancer cell lines (breast cancer cell lines): significantly more sensitive

Cc1ccc(-n2nc(C(C)(C)C)cc2NC(=O)Nc2ccc(OCCN3CCOCC3)c3ccccc23)cc1 [BIRB 0796]
sensitivity (−log10[IC50]) of high TN score vs low TN score cell lines (cancer cell lines [1]): less sensitive
sensitivity of high iBCR score vs low iBCR score cell lines (cancer cell lines [1]): less sensitive

Cn1cc(C2=C(c3ccc(Cl)cc3Cl)C(=O)NC2=O)c2ccccc21 [SB216763]
sensitivity of high Agro score vs low Agro score cell lines (cancer cell lines [1]): less sensitive

O=C(CCCCCCC(=O)Nc1ccccc1)NO [Vorinostat]
sensitivity of high iBCR score vs low iBCR score cell lines (cancer cell lines [1]): less sensitive

CC1(C)CC(=O)c2c(C(F)(F)F)nn(-c3ccc(C(N)=O)c(N[C@H]4CC[C@H](OC(=O)CN)CC4)c3)c2C1 [PF0429113]
sensitivity (−log10[IC50]) of high iBCR score vs low iBCR score breast cancer cell lines (breast cancer cell lines): significantly more sensitive

CC[C@@H]1C(=O)N(C)c2cnc(Nc3ccc(C(=O)NC4CCN(C)CC4)cc3OC)nc2N1C1CCCC1 [B1-2536]
sensitivity of high Agro score vs low Agro score cell lines (cancer cell lines [1]): more sensitive
sensitivity of high iBCR score vs low iBCR score cell lines (cancer cell lines [1]): more sensitive

Cn1c(=O)n(-c2ccc(C(C)(C)C#N)cc2)c2c3cc(-c4cnc5ccccc5c4)ccc3ncc21 [BEZ235]
sensitivity (−log10[IC50]) of high TN score vs low TN score cell lines (cancer cell lines [1]): more sensitive
sensitivity of high iBCR score vs low iBCR score cell lines (cancer cell lines [1]): more sensitive

Cn1cnc2c(F)c(Nc3ccc(Br)cc3Cl)c(C(=O)NOCCO)cc21 [AZD6244]
sensitivity (−log10[IC50]) of high iBCR score vs low iBCR score breast cancer cell lines (breast cancer cell lines): significantly more sensitive

O=C(c1cc(Cc2n[nH]c(=O)c3ccccc23)ccc1F)N1CCN(C(=O)C2CC2)CC1 [AZD-2281]
sensitivity of high iBCR score vs low iBCR score cell lines (cancer cell lines [1]): less sensitive

CC1(C)CCC(c2ccc(Cl)cc2)=C(CN2CCN(c3ccc(C(=O)NS(=O)(=O)c4ccc(N[C@H](CCN5CCOCC5)CSc5ccccc5)c(S(=O)(=O)C(F)(F)F)c4)cc3)CC2)C1 [ABT-263]
sensitivity (−log10[IC50]) of high TN score vs low TN score cell lines (cancer cell lines [1]): less sensitive
sensitivity of high iBCR score vs low iBCR score cell lines (cancer cell lines [1]): less sensitive

O=C(NC[C@H](O)CO)c1ccncc1Nc1ccc(I)cc1F [AS703026]
sensitivity (−log10[IC50]) of high iBCR score vs low iBCR score breast cancer cell lines (breast cancer cell lines): significantly more sensitive

CCc1cc(Nc2nccc(-c3c(-c4ccc(OC)c(C(=O)Nc5c(F)cccc5F)c4)nc4ccccn34)n2)c(OC)cc1N1CCC(N2CCN(S(C)(=O)=O)CC2)CC1 [GSK1904529A]
sensitivity (−log10[IC50]) of high iBCR score vs low iBCR score breast cancer cell lines (breast cancer cell lines): significantly more sensitive
